Laboratory results from EP4582426A1, “PAN-KRAS INHIBITOR COMPOUND” (Adlai Nortye Biopharma Co., Ltd., priority 2022, dated 2024).

What was measured:
AsPC-1 (G12D) = experiment: In vitro cell proliferation inhibition test (CellTiter-Glo Luminescent Cell Viability Assay); format: cell-based; settings: AsPC-1 cell line, Pancreas, KRAS (p.G12D), cells and compounds co-incubated 72 hours
Text: (§1) Due to the diversity of RAS mutations and in order to evaluate the activity of compounds in different RAS mutant cell lines, we selected KRAS^WT, KRAS^G12C, KRAS^G12D), KRAS^G12V and BRAF mutant cell lines (see the table below) for in vitro activity evaluation and screening of compounds .
(§2) Experimental protocol: CellTiter-Glo® Cell Luminescent Viability Assay (Promega)
(§3) According to the doubling time of different cell lines, different numbers of cells (1000-5000 cells/well) were inoculated into 96-well plates containing 180 µl of the corresponding medium, and cultured overnight in a 37°C cell incubator containing 5% CO2. On the second day, the compound to be tested was pre-diluted 3-fold with the medium, the highest concentration was 100 µM, and there were 10 concentration gradients in total; then 20 µl of the medium containing different concentrations of the compound was added to the cells in the 96-well plate to ensure the final concentration of the compound to be up to 10 µM, with 10 concentration gradients of 3-fold dilutions. After co-incubating cells and compounds for 72 hours, the 96-well plate was taken out of the incubator, placed at room temperature for 30 minutes, and then 25 µl CellTiter-Glo® Reagent was added to each well to mix well, and incubated at room temperature for 10 minutes, and then 100 µl of the sample was transferred to a white 96-well plate (OptiPlateTM-96, PerkinElmer), the […] signal value was read using a multi-functional microplate reader (SpectraMax® i3x, Molecular devices). Subsequently, the signal value was standardized, and the four-parameter fitting regression equation was used for curve fitting to calculate the half maximal inhibitory concentration (IC50) of the compound on the cell line. Table 3: Antiproliferative activity of compounds of the present invention on KRAS cell mutants

SW480 (G12V) = experiment: as above; format: cell-based; settings: SW480 cell line, Large intestine, Colon, KRAS (p.G12V), cells and compounds co-incubated 72 hours
Text: as §1, §2, §3

| Compound | IC50 (AsPC-1 (G12D)) [nM] | IC50 (SW480 (G12V)) [nM] | further results |
| --- | --- | --- | --- |
| (1S,2S)-N-((6^3S,4S,Z)-1^1-ethyl-1^2-(2-((S)-1-methoxyethyl)-5-(pyrimidin-5-ylethynyl)pyridin-3-yl)-10,10-dimethyl-5,7-dioxo-6^1,6^2,6^3,6^4,6^5,6^6-hexahydro-1^1H-8-oxa-2(4,2)-thiazola-1(5,3)-indola-6(1,3)-pyridazinacycloundecaphane-4-yl)-2-methylcyclopropane-1-carboxamide [Example 22] | 6.5 | 19.2 |  |
| CCn1c(-c2cc(C#CCN3CCOC[C@H]3C)cnc2[C@H](C)OC)c2c3cc(ccc31)-c1csc(n1)C[C@H](NC(=O)[C@H]1C[C@@H]1C)C(=O)N1CCC[C@H](N1)C(=O)OCC(C)(C)C2 [Example 15, (1S,2S)-N-((63S,4S,Z)-11-ethyl-12-(2-((S)-1-methoxyethyl)-5-(3-((R)-3-methylmorpholino)prop-1-yn-1-yl)pyridin-3-yl)-10,10-dimethyl-5,7-dioxo-61,62,63,64,65,66-hexahydro-11H-8-oxa-2 (4,2)-thiazola-1(5,3)-indola-6(1,3)-pyridazinacyclonecaphane-4-yl)-2-methylcyclopropane-1-carboxamide] | 1.7 | 2.2 | IC50 (AsPC-1 (G12D); listed as 15'): 1880 nM; IC50 (SW480 (G12V); listed as 15'): 1060 nM |
| CCn1c(-c2cc(C#CC3CN(C)CCO3)cnc2C(C)OC)c2c3cc(ccc31)-c1csc(n1)CC(NC(=O)C1CC1C)C(=O)N1CCCC(N1)C(=O)OCC(C)(C)C2 (single isomer, unassigned) [Example 6] | 14 | 18.5 | IC50 (AsPC-1 (G12D); listed as 6'): 3960 nM; IC50 (SW480 (G12V); listed as 6'): 1830 nM |
| CCn1c(-c2cc(C#CCN3CCOCC3)cnc2[C@H](C)OC)c2c3cc(ccc31)-c1csc(n1)C[C@H](NC(=O)[C@H]1C[C@@H]1C)C(=O)N1CCC[C@H](N1)C(=O)OCC(C)(C)C2 (single isomer, unassigned) [Example 1] | 0.92 | 1.02 | IC50 (AsPC-1 (G12D); listed as 1'): 582 nM; IC50 (SW480 (G12V); listed as 1'): 343 nM |
| CCn1c(-c2cc(C#C[C@@H]3COCCN3C)cnc2[C@H](C)OC)c2c3cc(ccc31)-c1csc(n1)C[C@H](NC(=O)[C@H]1C[C@@H]1C)C(=O)N1CCC[C@H](N1)C(=O)OCC(C)(C)C2 [Example 28, (1S,2S)-N-((6^3S,4S,Z)-1^1-ethyl-1^2-(2-((S)-1-methoxyethyl)-5-(((R)-4-methylmorpholin-3-yl)ethynyl)pyridin-3-yl)-10,10-dimethyl-5,7-dioxo-6^1,6^2,6^3,6^4,6^5,6^6-hexahydro-1^1H-8-oxa-2(4,2)-thiazola-1(5,3)-indola-6(1,3)-pyridazinacycloundecaphane-4-yl)-2-methylcyclopropane-1-carboxamide] | 1.9 | 2.5 |  |
| (1S,2S)-N-((6^3S,4S,Z)-1^1-ethyl-1^2-(2-((S)-1-methoxyethyl)-5-((6-methyl-5,6,7,8-tetrahydropyrido[4,3-d]pyrimidin-2-yl)ethynyl)pyridin-3-yl)-10,10-dimethyl-5,7-dioxo-6^1,6^2,6^3,6^4,6^5,6^6-hexahydro-1^1H-8-oxa-2(4,2)-thiazola-1(5,3)-indola-6(1,3)-pyridazinacycloundecaphane-4-yl)-2-methylcyclopropane-1-carboxamide [Example 44] | 16.8 | 6.3 |  |
| CCn1c(-c2cc(C#CCN3CCN(C(C)=O)CC3)cnc2C(C)OC)c2c3cc(ccc31)-c1csc(n1)CC(NC(=O)C1C(C)C1C)C(=O)N1CCCC(N1)C(=O)OCC(C)(C)C2 [Example 41, (1r,2R,3S)-N-((6^3S,4S,Z)-1^2-(5-(3-(4-acetylpiperazin-1-yl)prop-1-yn-1-yl)-2-((S)-1-methoxyethyl)pyridin-3-yl)-1^1-ethyl-10,10-dimethyl-5,7-dioxo-6^1,6^2,6^3,6^4,6^5,6^6-hexahydro-1^1H-8-oxa-2(4,2)-thiazola-1(5,3)-indola-6(1,3)-pyridazinacycloundecaphane-4-yl)-2,3-dimethylcyclopropane-1-carboxamide] | 0.56 | 0.65 |  |
| CCn1c(-c2cc(C#CCN3CCN(C)CC3)cnc2[C@H](C)OC)c2c3cc(ccc31)-c1csc(n1)C[C@H](NC(=O)[C@H]1C[C@@H]1C)C(=O)N1CCC[C@H](N1)C(=O)OCC(C)(C)C2 [Example 60, (1S,2S)-N-((6^3S,4S,Z)-1^1-ethyl-1^2-(2-((S)-1-methoxyethyl)-5-(3-(4-methylpiperazin-1-yl)prop-1-yn-1-yl)pyridin-3-yl)-10,10-dimethyl-5,7-dioxo-6^1,6^2,6^3,6^4,6^5,6^6-hexahydro-1^1H-8-oxa-2(4,2)-thiazola-1(5,3)-indola-6(1,3)-pyridazinacycloundecaphane-4-yl)-2-methylcyclopropane-1-carboxamide] | 1.71 | 1.55 |  |
| CCn1c(-c2cc(C#CC3CCN(C)C3)cnc2C(C)OC)c2c3cc(ccc31)-c1csc(n1)CC(NC(=O)C1C(C)C1C)C(=O)N1CCCC(N1)C(=O)OCC(C)(C)C2 (single isomer, unassigned) [Example 18] | 3.4 | 0.42 |  |
| (1S,2S)-N-((6^3S,4S,Z)-1^1-ethyl-1^2-(5-(((R)-4-(2-hydroxyethyl)morpholin-3-yl)ethynyl)-2-((S)-1-methoxyethyl)pyridin-3-yl)-10,10-dimethyl-5,7-dioxo-6^1,6^2,6^3,6^4,6^5,6^6-hexahydro-1^1H-8-oxa-2(4,2)-thiazola-1(5,3)-indola-6(1,3)-pyridazinacycloundecaphane-4-yl)-2-methylcyclopropane-1-carboxamide [Example 33] | 2.9 | 6.5 |  |
| CCn1c(-c2cc(C#CCN(C)C)cnc2C(C)OC)c2c3cc(ccc31)-c1csc(n1)CC(NC(=O)C1C(C)C1C)C(=O)N1CCCC(N1)C(=O)OCC(C)(C)C2 [Example 58, (1r,2R,3S)-N-((6^3S,4S,Z)-1^2-(5-(3-(dimethylamino)prop-1-yn-1-yl)-2-((S)-1-methoxyethyl)pyridin-3-yl)-1^1-ethyl-10,10-dimethyl-5,7-dioxo-6^1,6^2,6^3,6^4,6^5,6^6-hexahydro-1^1H-8-oxa-2(4,2)-thiazola-1(5,3)-indola-6(1,3)-pyridazinacycloundecaphane-4-yl)-2,3-dimethylcyclopropane-1-carboxamide] | 0.7 | 0.24 |  |
| (1S,2S)-N-((6^3S,4S,Z)-1^1-ethyl-1^2-(5-((2-(ethylamino)pyrimidin-5-yl)ethynyl)-2-((S)-1-methoxyethyl)pyridin-3-yl)-10,10-dimethyl-5,7-dioxo-6^1,6^2,6^3,6^4,6^5,6^6-hexahydro-1^1H-8-oxa-2(4,2)-thiazola-1(5,3)-indola-6(1,3)-pyridazinacycloundecaphane-4-yl)-2-methylcyclopropane-1-carboxamide [Example 42] | 22.2 | 6.9 |  |
| CO[C@@H](C)c1ncc(C#CCN2CCOCC2)cc1-c1c2c3cc(ccc3n1CC(F)(F)F)-c1csc(n1)C[C@H](NC(=O)[C@H]1C[C@@H]1C)C(=O)N1CCC[C@H](N1)C(=O)OCC(C)(C)C2 (single isomer, unassigned) [Example 3] | 3.5 | 2.2 | IC50 (AsPC-1 (G12D); listed as 3'): 292 nM; IC50 (SW480 (G12V); listed as 3'): 2060 nM |
| CCn1c(-c2cc(C#CCN3CCO[C@@H](C)C3)cnc2[C@H](C)OC)c2c3cc(ccc31)-c1csc(n1)C[C@H](NC(=O)[C@H]1C[C@@H]1C)C(=O)N1CCC[C@H](N1)C(=O)OCC(C)(C)C2 (single isomer, unassigned) [Example 4] | 4.9 | 2.9 | IC50 (AsPC-1 (G12D); listed as 4'): 523 nM; IC50 (SW480 (G12V); listed as 4'): 813 nM |
| CCn1c(-c2cc(C#C[C@@H]3CCN(C)C3)cnc2[C@H](C)OC)c2c3cc(ccc31)-c1csc(n1)C[C@H](NC(=O)C1[C@@H](C)[C@H]1C)C(=O)N1CCC[C@H](N1)C(=O)OCC(C)(C)C2 (stereo partly shown) [Example 14] | < 0.1 | 0.2 | IC50 (AsPC-1 (G12D); listed as 14'): 57.1 nM |
| CCn1c(-c2cc(C#CCN3CCOCC3)cnc2[C@H](C)OC)c2c3cc(ccc31)-c1csc(n1)C[C@H](NC(=O)[C@H]1C[C@@H]1c1ccccc1)C(=O)N1CCC[C@H](N1)C(=O)OCC(C)(C)C2 (single isomer, unassigned) [Example 23] | 1.6 | 3.8 |  |
